Data as given in patent US10478574B2, “Nasal administration” (OptiNose AS, priority 2006, dated 2019).

Legend:
[1] = Blood plasma pharmacokinetics of midazolam for three administration systems (Example #1); settings: for Cl (obs) / Vz (obs): not corrected for bio-availability; for bio-availability: mean (95% CI); for AUC(0-t): AUClast
Method: In this study, twelve healthy subjects, 4 male and 8 female, were studied.
In separate sessions, the subjects received 3.4 mg of midazolam by one of three different administration systems, these being: • (i) an intravenous administration system in which a midazolam formulation was intravenously administered; • (ii) a conventional nasal spray administration system in which a midazolam formulation was conventionally nasally administered using a spray pump as supplied by Ing Erich Pfeiffer GmbH (Radolfsee, Germany) which is specified to generate a liquid spray with a mean particle size of 43 μm, with 100 μl of the formulation being delivered to each nostril; and • (iii) the bi-directional administration system of the first-described embodiment, and incorporating the same spray pump as the conventional nasal spray administration system, in which a midazolam formulation was nasally administered, with 100 μl of the formulation being delivered to each nostril.
Each study session was six hours in duration, and the sessions were separated by at least one week.
The intravenous formulation was a commercial midazolam HCl formulation (1 mg/ml (free base)) as supplied by Alpharma Inc (New Jersey, USA).
The nasal formulation was an aqueous solution containing midazolam base (1.7% w/v), sulfobutylether-β-cyclodextrin sodium salt with a molar substitution of 6.2 (Captisol®) (14% w/v) as supplied by CyDex Inc (Kansas, USA), hydroxypropyl methylcellulose (0.1% w/v), benzalkonium chloride (0.02% w/v), ethylene diaminetetraacetic acid (0.1% w/v) and phosphoric acid (0.73% w/v). The pH of the formulation was adjusted to a pH of between 4.20 and 4.35 with sodium hydroxide.
Venous blood samples, each having a volume of 9 ml, were drawn just prior to administration and at 2, 5, 10, 15, 20, 25, 30, 35, 45, 60, 90, 120, 240 and 360 minutes after administration, in order to allow for a determination of the blood plasma concentration of midazolam.
The blood plasma concentration of midazolam was determined according to Martens et al.
Samples, spiked with diazepam as an internal standard, were alkalised and extracted by toluene containing 0.1% w/v amyl alcohol. The resulting organic phase for each of the samples was then evaporated and the residue for each of the samples was derivatized with TBDMSTFA (/tert/-Butyldimethylsilyl)-N-methyltrifluoroacetamide with 1% w/v tert-butyldimethylsilyllchloride) at 60 °C. After the excess of TBDMSTFA was evaporated, the residue for each of the samples was dissolved in ethyl acetate and analyzed in a gas chromatograph, in this embodiment an HP 5890 gas chromatograph equipped with an HP 5972 mass-spectrometry detector as supplied by Hewlett Packard Inc (USA). The midazolam and diazepam components were quantified by the mass ions 310 and 256, respectively.
In this study, the midazolam clearance, the volume of distribution, the elimination rate, the maximum plasma concentration Cmax, the time maximum plasma concentration Tmax, and the area under the curve AUC (linear trapezoidal rule) were calculated by computerized curve fitting using the Win-Nonlin Standard 4.1 as supplied by Pharsight Corporation (California, USA). The systemic clearance (Cl)=dose/AUCiv, the apparent nasal clearances (Cln)=dose/AUCn, and the respective bioavailabilities (Fx)=(AUCx/dosey)/(AUCy/dosex) were determined from the calculated values.
In the results, the data is given as a median (min-max) or a mean (95% confidence interval (CI)). Regression analysis and ANOVA were used as appropriate. A bi-variate correlation (Pearson) was used to determine associations between variables. A paired sample t-test was used for group comparisons.

[2] = Subjective sedation score on numeric rating scale (NRS) 0-10 after midazolam (Example #1); assay type: in vivo, human
Method: Subjective sedation was scored by a numeric rating scale (NRS) 0-10, where 0 is fully awake and 10 is falling asleep or as tired as you can imagine at 0, 2, 5, 10, 15, 20, 25, 30, 35, 45, 60, 90, 120 and 360 minutes after administration.

[3] = bi-directional nasal administration system, 3.4 mg, mean
[4] = both, human, plasma, inhaled or intranasal, 3.4 mg, bi-directional nasal administration system, mean
[5] = both, human, plasma, inhaled or intranasal, 3.4 mg, conventional nasal spray administration system, mean
[6] = both, human, plasma, iv, 3.4 mg
[7] = both, human, plasma, iv, 3.4 mg, intravenous administration system, mean
[8] = conventional nasal spray administration system, 3.4 mg, mean

Cc1ncc2n1-c1ccc(Cl)cc1C(c1ccccc1F)=NC2 [midazolam]
AUCinf [1, 3]: 5364 ng·min/mL
Cl (obs) [1, 3]: 589 mL/min
Vz (obs) [1, 3]: 98551 mL
bio-availability ([1]; bi-directional spray administration system vs intravenous): 0.69 (0.57, 0.81)
AUC(0-inf) ([1]; both, human, plasma, inhaled or intranasal, 3.4 mg): 87.8 ng·h/mL
AUC(0-t) [1, 4]: 76.9 ng·h/mL
AUC(0-t) [1, 5]: 77.1 ng·h/mL
Cmax [1, 4]: 44 ng/mL
Cmax [1, 5]: 53 ng/mL
half-life ([1]; both, human, plasma, inhaled or intranasal, 3.4 mg, T1/2, bi-directional nasal administration system, mean): 1.98 h
half-life ([1]; both, human, plasma, inhaled or intranasal, 3.4 mg, T1/2, conventional nasal spray administration system, mean): 1.9 h
Tmax [1, 4]: 0.267 h
Tmax [1, 5]: 0.25 h
AUC(0-inf) [1, 6]: 136 ng·h/mL
Vd [1, 6]: 65.4 L
clearance [1, 6]: 451 mL/min
AUC(0-t) [1, 7]: 122 ng·h/mL
Cmax [1, 7]: 152 ng/mL
half-life ([1]; both, human, plasma, iv, 3.4 mg, T1/2, intravenous administration system, mean): 1.73 h
Tmax [1, 7]: 0.0417 h
Cl (obs) [1, 8]: 551 mL/min
Vz (obs) [1, 8]: 90691 mL
bio-availability ([1]; conventional spray administration system vs intravenous): 0.68 (037, 0.80)
CNS effect (sedation score as a function of blood plasma concentration) ([2]; bi-directional administration system compared with conventional nasal spray): substantially greater CNS effect than the conventional nasal spray administration system
sedation scores ([2]; bi-directional administration system compared with intravenous, 3.4 mg, median NRS): equivalent to those of the intravenous administration system
onset of action ([2]; bi-directional administration system compared with the other systems, 3.4 mg): considerably faster than the conventional nasal spray administration system
ratio of peak CNS effect to Cmax relative to intravenous administration ([2]; bi-directional administration system, 3.4 mg): about 3.5 times
